Laboratory results taken from patent US6680293B2, “Use of isolated domains of type IV collagen to modify cell and tissue interactions” (Kansas University Medical Center, priority 1994, dated 2004).

What was measured:
Hydra cell aggregates = assay: Hydra cell aggregate development / morphogenesis blocking; format: cell-based, Hydra vulgarie; settings: 10 μM, Time 0 to 96 hr
Experimental: All experiments utilized Hydra vulgarie (previously named Hydra attenuata). Animals were cultured as described previously (Sarras et al., 1991a, supra) and were not fed for 24 hr prior to use.
Hydra cell aggregates were prepared according to Gierer et al., (1972, supra) with modification described by Sans et al., (1993, supra). They were incubated either in microtiter plates (NUNS, Denmark) with one aggregate/well/10 μl incubation solution or in 96-well plates (Falcon) with three to five aggregates/well/50 μl incubation solution. Antibiotics were used throughout all steps of aggregate preparation to assure that the aggregates used in this study were free of any symbionic bacterial populations (Sarra et al., 1993, supra). […] By 24 hr of cell pellet formation, hydra cell aggregates develop septate junctions between epithelial cells (Wood et at., 1980. J. Ultrastruc. Res. 70:104-117). These junctions prevent the introduction of macromolecules from medium into mesoglea. […]
Criteria for morphogenesis was as follows. […] The percentage of aggregates-with head and tentacle structures at 96 hr of development was calculated and data for each group from different experiments were pooled and plotted. […] Using an ANOVA statistical test, a P value <0.05 was taken as the level of significant difference in all groups analyzed. […]

hydra cells = assay: Inhibition of DNA synthesis in hydra cell aggregates; format: cell-based, Hydra vulgarie; settings: 10 μM, Time 0 to 96 hr

Question: With NC(=O)NO [HU, hydroxyurea] as the molecule, how does the “morphogenesis of hydra cell aggregates” value (Hydra cell aggregates) read?
Answer: did not inhibit

Question: And the DNA synthesis (hydra cells)?
Answer: completely blocked
